Biological target: NAMPT enzyme (Homo sapiens (Human), UniProt P43490)
Assay: Enzyme Assay and NMN Detection (NAMPT reaction, fluorescence detection of NMN)
Assay type: biochemical
Conditions: NAMPT activation, NMN formation
Procedure: NAMPT reaction was performed in 50 mM HEPES, pH 7.5, containing 5 mM MgCl2, 0.1% Prionex, 0.005% Tween 20, and 1 mM TCEP at room temperature in Greiner 384-well black polypropylene plates. The concentration of substrates and enzymes in the final assay were as follows: ATP (120 uM), nicotinamide (5 uM), phosphoribosylpyrophosphate (6.25 uM), NAMPT enzyme (16 nM), pyrophosphatase (0.04 U/ml) in the final reaction volume 6 uL. Following 2 h incubation the reaction was stopped by addition 2.5 ul 20% acetophenone in dimethyl sulfoxide (DMSO) and 2.5 ul 2 MKOH. Plates were centrifuges and added with 10.5 ul 88% formic acid. The fluorescence (ex380/em460) was measured following another short incubation and 30 min incubation. The increased concentration of NMN was determined from a calibration curve obtained at the time of experiment.

Chain of NAMPT enzyme (P43490 whole entry, species assumed): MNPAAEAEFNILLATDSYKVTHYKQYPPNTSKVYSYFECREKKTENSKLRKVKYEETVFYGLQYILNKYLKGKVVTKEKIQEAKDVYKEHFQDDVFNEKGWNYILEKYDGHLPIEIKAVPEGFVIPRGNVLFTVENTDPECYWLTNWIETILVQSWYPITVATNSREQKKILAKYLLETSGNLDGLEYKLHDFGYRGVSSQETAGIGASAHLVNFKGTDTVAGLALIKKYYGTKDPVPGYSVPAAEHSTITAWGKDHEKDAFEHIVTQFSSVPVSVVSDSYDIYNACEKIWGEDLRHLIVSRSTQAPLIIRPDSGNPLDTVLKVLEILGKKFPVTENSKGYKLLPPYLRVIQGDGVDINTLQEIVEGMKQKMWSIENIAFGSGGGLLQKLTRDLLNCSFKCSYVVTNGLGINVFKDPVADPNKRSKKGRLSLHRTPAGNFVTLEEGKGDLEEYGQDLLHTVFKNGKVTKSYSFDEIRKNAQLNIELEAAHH

Compound | EC50 (Table B-4) | further results
Cc1cccc2c(-c3ccc(NC(=O)NCc4cn[nH]c4)cc3)nn(C)c12 [1-((1H-Pyrazol-4-yl)methyl)-3-(4-(1,7-dimethyl-1H-indazol-3-yl)phenyl)urea] | 2 to 5 µM | 
Cn1nc(-c2ccc(NC(=O)NCc3cn[nH]c3)cc2)c2ccncc21 [1-((1H-Pyrazol-4-yl)methyl)-3-(4-(1-methyl-1H-pyrazolo[3,4-c]pyridin-3-yl)phenyl)urea] | 2 to 5 µM | 
O=C(NCc1cn[nH]c1)Nc1ccc(-c2ncc(Cc3ccccc3)s2)cc1 [1-((1H-Pyrazol-4-yl)methyl)-3-(4-(5-benzylthiazol-2-yl)phenyl)urea] | 2 to 5 µM | 
O=C(NCc1cn[nH]c1)Nc1ccc(-c2ncc(-c3ccccc3)s2)cc1 [1-((1H-Pyrazol-4-yl)methyl)-3-(4-(5-phenylthiazol-2-yl)phenyl)urea] | 5 to 20 µM | 
COc1ccc(-c2ccccc2S(=O)(=O)c2ccc(NC(=O)NCc3cn[nH]c3)cc2)cn1 [1-((1H-Pyrazol-4-yl)methyl)-3-(4-((2-(6-methoxypyridin-3-yl)phenyl)sulfonyl)phenyl)urea] | 5 to 20 µM | 
Cc1ccccc1-c1ccccc1S(=O)(=O)c1ccc(NC(=O)NCc2cn[nH]c2)cc1 [1-((1H-Pyrazol-4-yl)methyl)-3-(4-((2′-methyl-[1,l′-biphenyl]-2-yl)sulfonyl)phenyl)urea] | 0.1 to 2 µM | 
O=C(NCc1cn[nH]c1)Nc1ccc(S(=O)(=O)c2cccc(C(F)(F)F)c2)cc1 [1-((1H-Pyrazol-4-yl)methyl)-3-(4-((3-(trifluoromethyl)phenyl)sulfonyl)phenyl)urea] |  | EC50 (Table B-6): 0.1 to 2 µM
N#Cc1cccc(-c2ccccc2S(=O)(=O)c2ccc(NC(=O)NCc3cn[nH]c3)cc2)c1 [1-((1H-Pyrazol-4-yl)methyl)-3-(4-((3′-cyano-[1,1′-biphenyl]-2-yl)sulfonyl)phenyl)urea] | 5 to 20 µM | 
O=C(NCc1cn[nH]c1)Nc1ccc(S(=O)(=O)c2ccc(C(F)(F)F)cc2)cc1 [1-((1H-Pyrazol-4-yl)methyl)-3-(4-((4-(trifluoromethyl)phenyl)sulfonyl)phenyl)urea] | 0.1 to 2 µM | 
O=C(NCc1cn[nH]c1)Nc1ccc(Nc2nc(-c3ccccc3)cs2)cc1 [1-((1H-Pyrazol-4-yl)methyl)-3-(4-((4-phenylthiazol-2-yl)amino)phenyl)urea] | 0.1 to 2 µM | 
N#Cc1ccc(-c2ccccc2S(=O)(=O)c2ccc(NC(=O)NCc3cn[nH]c3)cc2)cc1 [1-((1H-Pyrazol-4-yl)methyl)-3-(4-((4′-cyano-[1,1′-biphenyl]-2-yl)sulfonyl)phenyl)urea] | 5 to 20 µM | 
O=C(NCc1cn[nH]c1)Nc1ccc(Nc2ncc(-c3ccccc3)s2)cc1 [1-((1H-Pyrazol-4-yl)methyl)-3-(4-((5-phenylthiazol-2-yl)amino)phenyl)urea] | 0.1 to 2 µM | 
O=C(NCc1cn[nH]c1)Nc1ccc(S(=O)(=O)c2cccc(-c3ccccc3)c2)cc1 [1-((1H-Pyrazol-4-yl)methyl)-3-(4-([1,1′-biphenyl]-3-ylsulfonyl)phenyl)urea] | 0.1 to 2 µM | 
O=C(NCc1cn[nH]c1)Nc1ccc(-c2nc3ccccc3s2)cc1 [1-((1H-Pyrazol-4-yl)methyl)-3-(4-(benzo[d]thiazol-2-yl)phenyl)urea] | 5 to 20 µM | 
O=C(NCc1cn[nH]c1)Nc1ccc(Nc2nc3ccccc3s2)cc1 [1-((1H-Pyrazol-4-yl)methyl)-3-(4-(benzo[d]thiazol-2-ylamino)phenyl)urea] | > 20 µM | 
O=C(NCc1cn[nH]c1)Nc1ccc(S(=O)(=O)c2ccccn2)cc1 [1-((1H-Pyrazol-4-yl)methyl)-3-(4-(pyridin-2-ylsulfonyl)phenyl)urea] | 0.1 to 2 µM | 
O=C(NCc1cn[nH]c1)Nc1ccc(S(=O)(=O)c2ccncc2)cc1 [1-((1H-Pyrazol-4-yl)methyl)-3-(4-(pyridin-4-ylsulfonyl)phenyl)urea] | 0.1 to 2 µM | 
O=C(NCc1cn[nH]c1)Nc1ccc(S(=O)(=O)c2cncnc2)cc1 [1-((1H-Pyrazol-4-yl)methyl)-3-(4-(pyrimidin-5-ylsulfonyl)phenyl)urea] | 0.1 to 2 µM | 
O=C(NCc1cnco1)Nc1ccc(-c2ncc(-c3ccccc3)s2)cc1 [1-(Oxazol-5-ylmethyl)-3-(4-(5-phenylthiazol-2-yl)phenyl)urea] |  | EC50 (Table B-5): 5 to 20 µM
O=C(NCc1cnco1)Nc1ccc(S(=O)(=O)c2cccc(C(F)(F)F)c2)cc1 [1-(Oxazol-5-ylmethyl)-3-(4-((3-(trifluoromethyl)phenyl)sulfonyl)phenyl)urea] |  | EC50 (Table B-5): 0.1 to 2 µM
O=C(NCc1cnco1)Nc1ccc(S(=O)(=O)c2ccc(C(F)(F)F)cc2)cc1 [1-(Oxazol-5-ylmethyl)-3-(4-((4-(trifluoromethyl)phenyl)sulfonyl)phenyl)urea] |  | EC50 (Table B-5): 0.1 to 2 µM
O=C(NCc1cnco1)Nc1ccc(Nc2nc(-c3ccccc3)cs2)cc1 [1-(Oxazol-5-ylmethyl)-3-(4-((4-phenylthiazol-2-yl)amino)phenyl)urea] |  | EC50 (Table B-5): 2 to 5 µM
O=C(NCc1cnco1)Nc1ccc(Nc2ncc(-c3ccccc3)s2)cc1 [1-(Oxazol-5-ylmethyl)-3-(4-((5-phenylthiazol-2-yl)amino)phenyl)urea] |  | EC50 (Table B-5): 0.1 to 2 µM

Continued, in another order:

EC50 (Table B-4) | Compound | further results
0.1 to 2 µM | Cc1ccc2c(c1)c(-c1ccc(NC(=O)NCc3cn[nH]c3)cc1)nn2C [1-((1H-Pyrazol-4-yl)methyl)-3-(4-(1,5-dimethyl-1H-indazol-3-yl)phenyl)urea] | 
0.1 to 2 µM | Cn1nc(-c2ccc(NC(=O)NCc3cn[nH]c3)cc2)c2cc(Cl)ccc21 [1-((1H-Pyrazol-4-yl)methyl)-3-(4-(5-chloro-1-methyl-1H-indazol-3-yl)phenyl)urea] | 
0.1 to 2 µM | O=C(NCc1cn[nH]c1)Nc1ccc(S(=O)(=O)c2cn[nH]c2)cc1 [1-((1H-Pyrazol-4-yl)methyl)-3-(4-((1H-pyrazol-4-yl)sulfonyl)phenyl)urea] | 
< 0.1 µM | O=C(NCc1cn[nH]c1)Nc1ccc(S(=O)(=O)c2ccccc2F)cc1 [1-((1H-Pyrazol-4-yl)methyl)-3-(4-((2-fluorophenyl)sulfonyl)phenyl)urea] | 
0.1 to 2 µM | O=C(NCc1cn[nH]c1)Nc1ccc(S(=O)(=O)c2ccccc2-c2ccccc2Cl)cc1 [1-((1H-Pyrazol-4-yl)methyl)-3-(4-((2′-chloro-[1,1′-biphenyl]-2-yl)sulfonyl)phenyl)urea] | 
< 0.1 µM | O=C(NCc1cn[nH]c1)Nc1ccc(S(=O)(=O)c2cccc(F)c2)cc1 [1-((1H-Pyrazol-4-yl)methyl)-3-(4-((3-fluorophenyl)sulfonyl)phenyl)urea] | 
0.1 to 2 µM | COc1ccccc1-c1csc(Nc2ccc(NC(=O)NCc3cn[nH]c3)cc2)n1 [1-((1H-Pyrazol-4-yl)methyl)-3-(4-((4-(2-methoxyphenyl)thiazol-2-yl)amino)phenyl)urea] | 
0.1 to 2 µM | COc1cccc(-c2csc(Nc3ccc(NC(=O)NCc4cn[nH]c4)cc3)n2)c1 [1-((1H-Pyrazol-4-yl)methyl)-3-(4-((4-(3-methoxyphenyl)thiazol-2-yl)amino)phenyl)urea] | 
0.1 to 2 µM | COc1ccc(-c2csc(Nc3ccc(NC(=O)NCc4cn[nH]c4)cc3)n2)cc1 [1-((1H-Pyrazol-4-yl)methyl)-3-(4-((4-(4-methoxyphenyl)thiazol-2-yl)amino)phenyl)urea] | 
< 0.1 µM | O=C(NCc1cn[nH]c1)Nc1ccc(S(=O)(=O)c2ccc(F)cc2)cc1 [1-((1H-Pyrazol-4-yl)methyl)-3-(4-((4-fluorophenyl)sulfonyl)phenyl)urea] | 
< 0.1 µM | O=C(NCc1cn[nH]c1)Nc1ccc(S(=O)(=O)c2ccccc2-c2ccccc2)cc1 [1-((1H-Pyrazol-4-yl)methyl)-3-(4-([1,1′-biphenyl]-2-ylsulfonyl)phenyl)urea] | 

— patent US11452717B2, “Small molecule activators of nicotinamide phosphoribosyltransferase (NAMPT) and uses thereof” (Sanford Burnham Prebys Medical Discovery Institute, priority 2017, dated 2022)
